What all share (type): cell-based
The target in assay [1] is T1, mineralocorticoid receptor (MR) (Homo sapiens, UniProt P08235).
T1 sequence (P08235 726-984): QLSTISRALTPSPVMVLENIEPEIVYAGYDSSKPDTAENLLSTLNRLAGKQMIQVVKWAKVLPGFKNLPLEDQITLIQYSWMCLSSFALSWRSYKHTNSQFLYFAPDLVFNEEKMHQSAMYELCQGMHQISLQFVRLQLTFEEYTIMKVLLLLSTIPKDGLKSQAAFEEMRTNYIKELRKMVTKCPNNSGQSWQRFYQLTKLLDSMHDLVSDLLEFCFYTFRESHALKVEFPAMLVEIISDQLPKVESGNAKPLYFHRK
Nature of the assay: Assay for agonist activity on mineralocorticoid receptor (luciferase reporter, HEK293 cells transfected with pBIND-MR plasmid). To be noted: for EC50: EC50 of agonist activity, HEK293 reporter cells, top concentration 50 µM, read-out: Nuclear receptor enzyme activity (nM) MR; for Target selectivity MR/GR: ratio of EC50 values. As to the method: (§1) Pharmacological Example 2: Assay for Agonist Activity on Mineralocorticoid Receptor (MR) and Progesterone Receptor (PR)
(§2) Test compound stock solutions: The test compounds (compounds 4, 5, 7, 8, 9, 11, 13, 16, 17, 18, 22, 23, 24, 34, 35, 36, 38, 41, 45, 47, 53, 55, and 59) were accurately weighed, dissolved in DMSO to prepare stock solutions at a concentration of 20 mM, and stored at -20 °C.
(§3) The test compounds were subjected to a 4-fold serial dilution starting from an initial concentration of 50 µ M, generating a 12-point concentration gradient with duplicate wells for each concentration. The blank control consisted of 0.1% DMSO.
(§4) The HEK293 stable cell lines […] transfected with mineralocorticoid receptor (MR) and progesterone receptor (PR) (ICE Bioscience, Lot No. TYP-20220819, TPJ-20220812) were cultured in Dulbecco's Modified Eagle Medium (DMEM) supplemented with 10% fetal bovine serum (FBS) and 200 µ g/ml Hygromycin B in a cell incubator containing 5% CO2 at 37 °C. The spent medium was aspirated, and the cells were washed once with phosphate-buffered saline (PBS). Then, 1 mL of TrypLE™ Express solution was added, and the cells were incubated at 37 °C for approximately 2 min. When the cells detached from the bottom of the cell culture dish, approximately 5 mL of pre-warmed complete medium at 37 °C was added. The cell suspension was gently pipetted with a pipette to dissociate clumped cells. The cell suspension was transferred to a sterile centrifuge tube and centrifuged at 1000 rpm for 5 min to pellet the cells for experiments or subculture..
(§5) HEK293 cells were digested and seeded into 6-cm culture dishes. The pBIND-MR and pBIND-PR plasmids were separately transfected into the HEK293 cells using a transfection reagent, resulting in HEK293 cells successfully transfected with the pBIND-MR and pBIND-PR plasmids, respectively. The cells were resuspended in phenol red-free DMEM medium containing 5% charcoal-stripped serum, counted, and then seeded into 96-well plates. The test compounds were added, and the plates were then incubated in an incubator. The luminescence signal values were measured using a multimode microplate reader following the instructions of the luciferase assay kit. The EC50 values of each test compound were calculated using the nonlinear fitting formula with GraphPad Prism 8.0 software.

The target in assay [2] is T2, glucocorticoid receptor (GR) (Homo sapiens, UniProt P04150).
T2 sequence (P04150 521-777): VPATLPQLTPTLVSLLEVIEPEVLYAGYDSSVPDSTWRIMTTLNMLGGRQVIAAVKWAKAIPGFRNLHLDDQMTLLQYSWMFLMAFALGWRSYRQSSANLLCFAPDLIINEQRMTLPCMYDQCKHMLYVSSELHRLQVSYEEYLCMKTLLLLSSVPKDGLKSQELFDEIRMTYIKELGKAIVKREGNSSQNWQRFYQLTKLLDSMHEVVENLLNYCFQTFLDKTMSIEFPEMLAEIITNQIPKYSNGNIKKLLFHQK
The assay is described as follows: Assay for agonist activity on glucocorticoid receptor (luciferase reporter, HEK293 cells transfected with pBIND-GR plasmid). As to the method: Pharmacological Example 1: Assay for Agonist Activity on Glucocorticoid Receptor (GR)
The test compounds were subjected to a 4-fold serial dilution starting from an initial concentration of 10 µ M, generating a 10-point concentration gradient with duplicate wells for each concentration. The blank control consisted of 0.1 % DMSO.
as §4, with “line” for “lines”, “glucocorticoid” for “mineralocorticoid”, “(GR)” for “(MR) and progesterone receptor (PR)”, “TYP-20220519) was” for “TYP-20220819, TPJ-20220812) were”, “aspirated” for “aspirated,”, “subculture.” for “subculture..”
as §5, with “pBIND-GR plasmid was” for “pBIND-MR and pBIND-PR plasmids were separately”, “pBIND-GR plasmid.” for “pBIND-MR and pBIND-PR plasmids, respectively.”

Assay [3] deals with T3, progesterone receptor (PR) (Homo sapiens, UniProt P06401).
T3 sequence (P06401 678-933): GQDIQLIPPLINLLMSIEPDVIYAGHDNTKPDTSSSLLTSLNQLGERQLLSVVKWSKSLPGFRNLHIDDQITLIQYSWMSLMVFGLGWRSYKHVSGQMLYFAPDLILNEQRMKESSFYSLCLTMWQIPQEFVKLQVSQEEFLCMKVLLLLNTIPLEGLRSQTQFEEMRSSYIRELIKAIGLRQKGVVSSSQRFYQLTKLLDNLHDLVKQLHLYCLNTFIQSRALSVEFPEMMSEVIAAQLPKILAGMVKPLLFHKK
Nature of the assay: Assay for agonist activity on progesterone receptor (luciferase reporter, HEK293 cells transfected with pBIND-PR plasmid). To be noted: for EC50: EC50 of agonist activity, HEK293 reporter cells, top concentration 50 µM, read-out: Nuclear receptor enzyme activity (nM) PR; for Target selectivity PR/GR: ratio of EC50 values. As to the method:
as §1, §2, §3, §4, §5

The mark [4] stands for this setting: EC50 of agonist activity, HEK293 reporter cells, read-out: Nuclear receptor enzyme activity (nM) GR.
[5] abbreviates: HEK293 cells transfected with pBIND-GR, luciferase signal, read-out: GR agonist EC50.

Where two headings read alike, the source gives them in different places.

In the case of `C[C@]12C=CC(=O)C=C1[C@@H](F)C[C@H]1[C@@H]3C[C@H]4OC(c5ccc(COC6CCOC6=O)cc5F)O[C@@]4(C(=O)CO)[C@@]3(C)C[C@H](O)[C@@]12F` (stereo partly drawn) [Compound 7, (2S,6aS,6bR,7S,8aS,8bS,11aR,12aS,12bS)-2,6b-Difluoro-10-(2-fluoro-4-(((2-oxotetrahydrofuran-3-yl)oxy)methyl)phenyl)-7-hydroxy-8b-(2-hydroxyacetyl)-6a,8a-dimethyl-1,2,6a,6b,7,8,8a,8b,11a, 12,12a,12b-dodecahydro-4H-naphtho[2',1':4,5]indeno[1,2-d][1,3]dioxol-4-one], the EC50 is > 50000 nM in assay [1], 1.21 nM in assay [2] (setting [4]), 1.21 nM in assay [2] (setting [5]) and > 50000 nM in assay [3]. In addition, the “Target selectivity MR/GR” value in assay [1] is reported as > 4.1×10^4. Moreover, the “Target selectivity PR/GR” value in assay [3] is recorded as > 4.1×10^4.

Turning to `C[C@]12C=CC(=O)C=C1[C@@H](F)C[C@H]1[C@@H]3C[C@H]4OC(c5ccc(OCC6CCOC6=O)cc5)O[C@@]4(C(=O)CO)[C@@]3(C)C[C@H](O)[C@@]12F` (stereo partly drawn) [Compound 13, (2S,6aS,6bR,7S,8aS,8bS,11aR,12aS,12bS)-2,6b-Difluoro-7-hydroxy-8b-(2-hydroxyacetyl)-6a,8a-dimethyl-10-(4-((2-oxotetrahydrofuran-3-yl)methoxy)phenyl)-1,2,6a,6b,7,8,8a,8b,11a,12,12a,12b-dodecahydro-4H-naphtho[2',1':4,5]indeno[1,2-d][1,3]dioxol-4-one], the EC50 in assay [1] is > 50000 nM; in assay [2] (setting [4]), 3.43 nM; in assay [2] (setting [5]), 3.43 nM; in assay [3] it was > 50000 nM. Moreover, the “Target selectivity MR/GR” value in assay [1] was > 1.4×10^4. For the same compound, the “Target selectivity PR/GR” value in assay [3] is on record as > 1.4×10^4.

As for `C[C@]12C=CC(=O)C=C1CC[C@H]1[C@@H]3C[C@H]4OC(c5ccc(CSC6CCOC6=O)cc5)O[C@@]4(C(=O)CCl)[C@@]3(C)C[C@H](O)[C@@]12Cl` (stereo partly drawn) [Compound 38, (6aS,6bR,7S,8aS,8bS,11aR,12aS,12bS)-6b-chloro-8b-(2-chloroacetyl)-7-hydroxy-6a,8a-dimethyl-10-(4-(((2-oxotetrahydrofuran-3-yl)thio)methyl)phenyl)-1,2,6a,6b,7,8,8a,8b,11a,12,12a,12b-dode cahydro-4H-naphtho[2',1':4,5]indeno[1,2-d][1,3]dioxol-4-one], the EC50 was > 50000 nM in assay [1], 0.11 nM in assay [2] (setting [4]), 0.11 nM in assay [2] (setting [5]) and > 50000 nM in assay [3]. The “Target selectivity MR/GR” value in assay [1] is recorded as > 4.5×10^5. Also, the “Target selectivity PR/GR” value in assay [3] was > 4.5×10^5.

Regarding `C[C@]12C=CC(=O)C=C1CC[C@H]1[C@@H]3C[C@H]4OC(c5ccc(CS(=O)(=O)C6CCOC6=O)cc5)O[C@@]4(C(=O)CO)[C@@]3(C)C[C@H](O)[C@@]12F` (stereo partly drawn) [Compound 59, (6aS,6bR,7S,8aS,8bS,11aR,12aS,12bS)-6b-Fluoro-7-hydroxy-8b-(2-hydroxyacetyl)-6a,8a-dimethyl-10-(4-(((2-oxotetrahydrofuran-3-yl)sulfonyl)methyl)phenyl)-1,2,6a,6b,7,8,8a,8b,11a,12,12a,12b-dodecahydro-4H-naphtho[2',1':4,5]indeno[1,2-d][1,3]dioxol-4-one], the EC50 in assay [1] was > 50000 nM; in assay [2] (setting [4]) it was 4.01 nM; in assay [2] (setting [5]), 4.01 nM; in assay [3], > 50000 nM. For the same compound, the “Target selectivity MR/GR” value in assay [1] is > 1.2×10^4. For the same compound, the “Target selectivity PR/GR” value in assay [3] was > 1.2×10^4.

For `C[C@]12C=CC(=O)C=C1CC[C@H]1[C@@H]3C[C@H]4OC(c5ccc(COC6COC(=O)C6)cc5)O[C@@]4(C(=O)CO)[C@@]3(C)C[C@H](O)[C@@]12F` (stereo partly drawn) [Compound 19, (6aS,6bR,7S,8aS,8bS,11aR,12aS,12bS)-6b-Fluoro-7-hydroxy-8b-(2-hydroxyacetyl)-6a,8a-dimethyl-10-(4-(((5-oxotetrahydrofuran-3-yl)oxy)methyl)phenyl)-1,2,6a,6b,7,8,8a,8b,11a,12,12a,12b-do decahydro-4H-naphtho[2',1':4,5]indeno[1,2-d][1,3]dioxol-4-one], the EC50 in assay [2] (setting [5]) came to 0.91 nM.

In the case of `C[C@]12C=CC(=O)C=C1[C@@H](F)C[C@H]1[C@@H]3C[C@H]4OC(C5CCN(C(=O)C6COC(=O)C6)CC5)O[C@@]4(C(=O)CO)[C@@]3(C)C[C@H](O)[C@@]12F` (stereo partly drawn) [Compound 1, (2S,6aS,6bR,7S,8aS,8bS,11aR,12aS,12bS)-2,6b-Difluoro-7-hydroxy-8b-(2-hydroxyacetyl)-6a,8a-dimethyl-10-(1-(5-oxotetrahydrofuran-3-carbonyl)piperidin-4-yl)-1,2,6a,6b,7,8,8a,8b,11a,12,12a,1 2b-dodecahydro-4H-naphtho[2',1':4,5]indeno[1,2-d][1,3]dioxol-4-one], in assay [2] (setting [5]), the EC50 was 20.3 nM.

`C[C@]12C=CC(=O)C=C1[C@@H](F)C[C@H]1[C@@H]3C[C@H]4OC(c5ccc(CNC6COC(=O)C6)cc5F)O[C@@]4(C(=O)CO)[C@@]3(C)C[C@H](O)[C@@]12F` (stereo partly drawn) [Compound 12, (2S,6aS,6bR,7S,8aS,8bS,11aR,12aS,12bS)-2,6b-Difluoro-10-(2-fluoro-4-(((5-oxotetrahydrofuran-3-yl)amino)methyl)phenyl)-7-hydroxy-8b-(2-hydroxyacetyl)-6a,8a-dimethyl-1,2,6a,6b,7,8,8a,8b,1 1a,12,12a,12b-dodecahydro-4H-naphtho[2',1':4,5]indeno[1,2-d][1,3]dioxol-4-one]: the EC50 in assay [2] (setting [5]) is 4.06 nM.

Source of the values: patent EP4635969A1, “NOVEL GLUCOCORTICOID, METHOD FOR PREPARING SAME, AND USE THEREOF” (Tianjin Pharmaceutical Biotechnology Co., Ltd., priority 2022, dated 2024).
